According to the supplement of paper PMC10307832:

Key:
Test in all cases: relative viability (nuclei count vs DMSO), 5 days (fraction); higher = more cells survive
[1] = compound: CNC(=O)c1cc(Oc2ccc(NC(=O)Nc3ccc(Cl)c(C(F)(F)F)c3)cc2)ccn1 [Sorafenib] + N=C(N)NC(=N)NCCc1ccccc1 [Phenformin] (partner 250 µM)
In short: (§1)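 Relative viability divides the nuclei count in treated wells by that in vehicle wells. Lung cancer cell lines were seeded in 1536-well plates, dosed by pin tool the next day, and fixed and stained after 5 days in one step with final 0.05% Triton X-100, 1% formaldehyde and 1 ug/ml Hoechst. Dosing was a single drug or a fixed anchor-drug dose plus five library-drug doses (not always all listed) in √10 steps, and values are medians of duplicate plates imaged at 4×.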

[2] = compound: CNC(=O)c1cc(Oc2ccc(NC(=O)Nc3ccc(Cl)c(C(F)(F)F)c3)cc2)ccn1 [Sorafenib] + CC(C)C[C@H](NC(=O)[C@H](Cc1ccccc1)NC(=O)c1cnccn1)B(O)O [Bortezomib] (partner 0.002 µM)
In short: as §1

[3] = compound: CNC(=O)c1cc(Oc2ccc(NC(=O)Nc3ccc(Cl)c(C(F)(F)F)c3)cc2)ccn1 [Sorafenib] + CCNC(=O)c1noc(-c2cc(C(C)C)c(O)cc2O)c1-c1ccc(CN2CCOCC2)cc1 [Luminespib] (partner 0.01 µM)
In short: as §1

[4] = compound: CNC(=O)c1cc(Oc2ccc(NC(=O)Nc3ccc(Cl)c(C(F)(F)F)c3)cc2)ccn1 [Sorafenib] + Cc1nc(NC(=O)N2CCC[C@H]2C(N)=O)sc1-c1ccnc(C(C)(C)C(F)(F)F)c1 [Alpelisib] (partner 2 µM)
In short: as §1

[5] = compound: CNC(=O)c1cc(Oc2ccc(NC(=O)Nc3ccc(Cl)c(C(F)(F)F)c3)cc2)ccn1 [Sorafenib] + O=C(CCCCCCC(=O)Nc1ccccc1)NO [Vorinostat] (partner 1 µM)
In short: as §1

| Cell Line | relative viability ([1]; first compound 0.08 µM) | relative viability ([1]; first compound 0.253 µM) | relative viability ([1]; first compound 2.53 µM) | relative viability ([1]; first compound 8 µM) | relative viability ([2]; first compound 0.08 µM) | relative viability ([2]; first compound 0.253 µM) | relative viability ([2]; first compound 2.53 µM) | relative viability ([2]; first compound 8 µM) | relative viability ([3]; first compound 0.08 µM) | relative viability ([3]; first compound 0.253 µM) | relative viability ([3]; first compound 2.53 µM) | relative viability ([3]; first compound 8 µM) | relative viability ([4]; first compound 0.08 µM) | relative viability ([4]; first compound 0.253 µM) | relative viability ([4]; first compound 2.53 µM) | relative viability ([4]; first compound 8 µM) | relative viability ([5]; first compound 0.08 µM) | relative viability ([5]; first compound 0.253 µM) | relative viability ([5]; first compound 2.53 µM) | relative viability ([5]; first compound 8 µM) |
| --- | --- | --- | --- | --- | --- | --- | --- | --- | --- | --- | --- | --- | --- | --- | --- | --- | --- | --- | --- | --- |
| NCI-H1355 | 0.497 | 0.468 | 0.452 | 0.387 | 1.15 | 1.05 | 1.14 | 1.15 | 0.717 | 0.687 | 0.779 | 0.62 | 0.887 | 0.767 | 0.784 | 0.778 | 0.752 | 0.563 | 0.662 | 0.505 |
| NCI-H1975 | 0.462 | 0.403 | 0.429 | 0.341 | 0.404 | 0.375 | 0.445 | 0.201 | 0.426 | 0.201 | 0.24 | 0.153 | 0.643 | 0.789 | 0.77 | 0.323 | 0.788 | 0.787 | 0.72 | 0.436 |
| NCI-H661 | 0.279 | 0.143 | 0.289 | 0.215 | 0.96 | 0.871 | 0.648 | 0.615 | 0.931 | 0.928 | 0.822 | 0.293 | 0.949 | 0.478 | 0.596 | 0.365 | 0.818 | 0.757 | 0.796 | 0.441 |
| H3255 | 1.02 | 0.357 | 0.406 |  | 0.841 | 0.706 | 1.05 | 0.726 | 1 | 0.781 | 0.925 |  | 0.851 | 0.639 | 0.802 | 0.552 |  | 0.722 | 0.723 | 0.618 |
| NCI-H1993 | 0.516 | 0.51 | 0.499 | 0.499 | 1.6 | 0.994 | 1.24 | 1.07 | 0.921 | 0.489 | 0.999 | 0.543 | 0.684 | 0.7 | 0.666 | 0.674 | 0.973 | 0.726 | 1.1 | 0.633 |
| NCI-H441 | 0.976 |  | 0.745 | 0.412 | 0.489 | 0.433 | 0.277 | 0.219 | 0.326 |  | 0.29 | 0.287 | 0.683 | 0.522 | 0.5 | 0.538 | 0.638 | 0.756 | 0.547 | 0.47 |
